# How the values were obtained:
# [1] = cited from earlier work
# [2] = cited from earlier work; remark: listed apart in the source
# human A2AAR = human A2AAR (Homo sapiens, UniProt P29274); assay: Radioligand binding at human A2AAR expressed in CHO cells; settings: read-out: % inhibition at 1 µM (hA2AAR)
# [3] = target: T1, human A3 adenosine receptor (Homo sapiens, UniProt P0DMS8); type: cell-based; settings: transfected CHO cells
# T1 sequence (P0DMS8 1-318): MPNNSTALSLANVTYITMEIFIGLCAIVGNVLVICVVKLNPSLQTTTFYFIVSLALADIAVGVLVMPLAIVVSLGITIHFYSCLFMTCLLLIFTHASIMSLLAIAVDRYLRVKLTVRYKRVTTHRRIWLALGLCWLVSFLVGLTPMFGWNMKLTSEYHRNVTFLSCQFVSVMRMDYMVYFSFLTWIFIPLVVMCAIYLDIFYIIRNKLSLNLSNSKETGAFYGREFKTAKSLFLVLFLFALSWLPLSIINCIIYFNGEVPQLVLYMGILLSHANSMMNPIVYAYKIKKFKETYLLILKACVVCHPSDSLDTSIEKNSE
# Chain of human A2AAR (P29274 whole entry): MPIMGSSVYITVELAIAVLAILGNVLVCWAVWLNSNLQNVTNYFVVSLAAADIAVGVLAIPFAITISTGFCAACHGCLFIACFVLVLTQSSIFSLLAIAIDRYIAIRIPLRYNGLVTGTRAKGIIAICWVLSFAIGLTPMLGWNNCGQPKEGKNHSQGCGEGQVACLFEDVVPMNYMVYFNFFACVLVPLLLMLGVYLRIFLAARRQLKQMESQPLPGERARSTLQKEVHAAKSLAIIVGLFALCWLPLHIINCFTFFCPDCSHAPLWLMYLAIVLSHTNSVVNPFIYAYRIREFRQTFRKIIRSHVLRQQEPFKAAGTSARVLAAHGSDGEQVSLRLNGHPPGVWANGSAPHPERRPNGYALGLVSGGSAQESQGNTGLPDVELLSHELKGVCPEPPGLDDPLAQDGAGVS
SMILES,inhibition at 1 µM (human A2AAR) [%],other results
"CNC(=O)[C@H]1S[C@@H](n2cnc3c(NCc4cccc(I)c4)nc(Cl)nc32)[C@H](O)[C@@H]1O [Compound 3, thio-Cl-IB-MECA]",–,In vitro anticancer activity [1]: potent; In vivo anticancer activity [2]: potent
"CNC(=O)[C@H]1S[C@@H](n2cnc3c(NCc4cccc(I)c4)ncnc32)[C@H](O)[C@@H]1O [Compound 5h, N^6-(3-Iodo-benzyl)-9-(5’-methylaminocarbonyl-4’-thio-β-D-ribofuranosyl)adenine]",–,Agonist efficacy at human A3AR (inhibition of cyclic AMP) [3]: full agonist
"O=C(NC1CCCCC1)[C@H]1S[C@@H](n2cnc3c(NCc4cccc(I)c4)ncnc32)[C@H](O)[C@@H]1O [Compound 5m, 9-(5’-Cyclohexylaminocarbonyl-4’-thio-β-D-ribofuranosyl)-N^6-(3-iodobenzyl)adenine]",24 ± 7,–
"O=C(NCc1cccc(F)c1)[C@H]1S[C@@H](n2cnc3c(NCc4cccc(I)c4)ncnc32)[C@H](O)[C@@H]1O [Compound 5n, 9-[5’-(3-Fluoro-benzylaminocarbonyl-4’-thio-β-D-ribofuranosyl)]-N^6-(3-iodobenzyl)adenine]",35 ± 8,–
"O=C(NCc1cccc(Cl)c1)[C@H]1S[C@@H](n2cnc3c(NCc4cccc(I)c4)ncnc32)[C@H](O)[C@@H]1O [Compound 5o, 9-[5’-(3-Chloro-benzylaminocarbonyl-4’-thio-β-D-ribofuranosyl)]-N^6-(3-iodobenzyl)adenine]",44 ± 1,–
"Cc1ccccc1CNC(=O)[C@H]1S[C@@H](n2cnc3c(NCc4cccc(I)c4)ncnc32)[C@H](O)[C@@H]1O [Compound 5p, N^6-(3-Iodo-benzyl)-9-[5’-(2-methyl-benzylaminocarbonyl-4’-thio-β-D-ribofuranosyl)]adenine]",26 ± 10,–
"Cc1cccc(CNC(=O)[C@H]2S[C@@H](n3cnc4c(NCc5cccc(I)c5)ncnc43)[C@H](O)[C@@H]2O)c1 [Compound 5q, N^6-(3-Iodo-benzyl)-9-[5’-(3-methyl-benzylaminocarbonyl-4’-thio-β-D-ribofuranosyl)]adenine]",31 ± 1,–
"Cc1ccc(CNC(=O)[C@H]2S[C@@H](n3cnc4c(NCc5cccc(I)c5)ncnc43)[C@H](O)[C@@H]2O)cc1 [Compound 5r, N^6-(3-Iodo-benzyl)-9-[5’-(4-methyl-benzylaminocarbonyl-4’-thio-β-D-ribofuranosyl)]adenine]",37,–
"COc1ccccc1CNC(=O)[C@H]1S[C@@H](n2cnc3c(NCc4cccc(I)c4)ncnc32)[C@H](O)[C@@H]1O [Compound 5s, N^6-(3-Iodo-benzyl)-9-[5’-(2-methoxy-benzylaminocarbonyl-4’-thio-β-D-ribofuranosyl)]adenine]",28 ± 9,–
"CCOc1ccccc1CNC(=O)[C@H]1S[C@@H](n2cnc3c(NCc4cccc(I)c4)ncnc32)[C@H](O)[C@@H]1O [Compound 5t, 9-[5’-(2-Ethoxy-benzylaminocarbonyl-4’-thio-β-D-ribofuranosyl)]-N^6-(3-iodobenzyl)adenine]",23 ± 8,–
"O=C(NCCc1ccccc1)[C@H]1S[C@@H](n2cnc3c(NCc4cccc(I)c4)ncnc32)[C@H](O)[C@@H]1O [Compound 5v, N^6-(3-Iodo-benzyl)-9-[5’-(2-phenetylaminocarbonyl-4’-thio-β-D-ribofuranosyl)]adenine]",11,–

# More lines, main results first:
inhibition at 1 µM (human A2AAR) [%],SMILES,other results
20,"CNC(=O)[C@H]1S[C@@H](n2cnc3c(NC)nc(Cl)nc32)[C@H](O)[C@@H]1O [Compound 4, reference compound]",–
35 ± 8,"CNC(=O)[C@H]1S[C@@H](n2cnc3c(NC)ncnc32)[C@H](O)[C@@H]1O [Compound 5a, N^6-Methyl-9-(5’-methylaminocarbonyl-4’-thio-β-D-ribofuranosyl)adenine]",–
20,"CCNC(=O)[C@H]1S[C@@H](n2cnc3c(NC)ncnc32)[C@H](O)[C@@H]1O [Compound 5b, 9-(5’-Ethylaminocarbonyl-4’-thio-β-D-ribofuranosyl)-N^6-methyladenine]",–
38 ± 5,"CNc1ncnc2c1ncn2[C@@H]1S[C@H](C(=O)NCC2CC2)[C@@H](O)[C@H]1O [Compound 5d, 9-(5’-Cyclopropylmethylaminocarbonyl-4’-thio-β-D-ribofuranosyl)-N^6-methyladenine]",–
45 ± 1,"CNc1ncnc2c1ncn2[C@@H]1S[C@H](C(=O)NC2CCCC2)[C@@H](O)[C@H]1O [Compound 5f, 9-(5’-Cyclopentylaminocarbonyl-4’-thio-β-D-ribofuranosyl)-N^6-methyladenine]",–
27 ± 10,"CNc1ncnc2c1ncn2[C@@H]1S[C@H](C(=O)NCc2cccc(I)c2)[C@@H](O)[C@H]1O [Compound 5g, 9-[(5’-(3-Iodo-benzylaminocarbonyl)-4’-thio-β-D-ribofuranosyl)]-N^6-methyladenine]",–

# Reference: paper PMC2797373 (Bioorganic & medicinal chemistry, 2009)
